Data: patent US5608095A, “Alkyl-4-silyl-phenols and esters thereof as antiatherosclerotic agents” (Hoechst Marion Roussel, Inc., priority 1996, dated 1997)
Where two headings read alike, the source gives them in different places.

How the values were obtained:
[1] = tested on: oxidation of serum lipids; test: TBARS assay, rat serum; type: in vivo, male Sprague-Dawley rats; conditions: po, 96 h, read-out: TBARS, percent of control
Description: (§1) A typical experiment consisted of 4-6 groups of rats (N=5 per group) with 1 group being a control which received no MDL compound and the other groups being treated with 0.3% MDL compound. Some of the compounds were either repeated at 0.3% or evaluated again at the lower dose of 0.1%. Male Sprague-Dawley rats, 50-100 g, (Harlan Laboratories, Indianapolis, Ind.) were housed in groups of 5, fed ad libitum water and Purina Rodent chow (#5002) with or without MDL compound as a dietary admixture for 4 days. Dietary admixtures (0.3%) were made by mixing 1.2 grams of an MDL compound with 400 grams of Purina rodent chow (#5002). The MDL compound was mixed with approximately 50 grams of food using a mortar and pestle. This was added to the remainder of the food and mixed for 3 hours on a rotary mixer. In the morning of day 5, non-fasted rats were anesthetized with carbon dioxide, and blood was collected by cardiac puncture. Rats were sacrificed by cervical dislocation. Body weights and liver weights were recorded in grams. Food consumption was recorded as grams.cndot.day^-1.cndot.rat^-1. Deaths were recorded as mortality. Aliquots of fresh serum were used for clinical chemistries, thiobarbituric acid reactive substances (TBARS) and conjugated diene measurements. Aliquots of serum (~0.5mL) and whole livers were frozen at -20° C. for compound and metabolite concentration determination at a later time.
In this assay the oxidation of serum lipids is initiated with CuSO4, resulting in the formation of aldehydes, such as malondialdehyde (MDA). Upon incubation with thiobarbituric acid, the absorbance of the aldehydes can be detected at 530-540 nm. As stated in the previous example, TBARS values which are lower than control serum values indicate the relative ability of a test compound to inhibit the oxidation of lipids in a sample. TBARS were measured as follows: 100 μL of serum were mixed with 400 μL of a 5 mmol CuSO4 solution and incubated at 37° C. for 3 hr. The reactions were stopped by addition of 1.0 mL of 20% trichloroacetic acid. Then 1.0 mL of 0.67% thiobarbituric acid in 0.05N sodium hydroxide was added, mixed, and the samples incubated for 30 min at 90° C. Samples were centrifuged briefly to pellet undissolved material, and the supernatants were transferred to a 96-well microtiter plate. Absorbances were measured at 540 nm using a Biotek model EL311 microplate reader. The nmoles of MDA produced were calculated from a standard curve of 0 to 10 nmoles of MDA prepared from malonaldehyde bis(dimethylacetal). Serum samples from treated rats were compared to serum samples from control rats that received no MDL compound.

[2] = HPLC quantitation of compound and metabolite concentration in rat serum and liver; type: in vivo, male Sprague-Dawley rats; conditions: 4 days; for concentration at 96 h: po
Description: as §1
Serum and liver concentrations of parent compound and the metabolites, bisphenol and diphenoquinone, were determined by reverse phase HPLC using a Waters 990 Powerline system. Livers (1 gram samples) were homogenized with 5.0 mL PBS, pH 7.4, using a Polytron tissue homogenizer at setting 5 for 20-30 seconds. Serum or liver homogenates were extracted as follows: 100μL of either serum or homogenate were added to 2.0 mL diethyl ether:ethanol (3:1) while vortexing the tube. The sample tubes were capped and centrifuged for 10 min at 5° C. at 3500 rpm in a Beckman GPKR centrifuge with a GH 3.7 rotor. The supernatants were transferred to clean tubes and dried under N2. Samples were reconstituted with 200 μL of acetonitrile:hexane:0.1M ammonium acetate (90:6.5:3.5, by vol.). Then, 100 μL were injected onto a Waters Deltapak C18-300 Å column, and eluted with an 83% acetonitrile:17% water mobile phase at a flow rate of 1.5 mL/min. Absorbances at the wavelengths of 240, 254, and 420 nm were recorded. Compound concentrations were calculated from known quantities of authentic parent compounds after correction for recovery; the range of recovery from spiked samples was 40 to 100%. The lowest detectable limit for this class of compounds was ~0.5 μg/mL. […]. Concentrations were calculated as μg/mL of serum and μg/g of liver.

[3] = tested on: oxidation of serum lipids; test: TBARS assay, serum of cholesterol-fed rabbits; type: in vivo, female New Zealand White rabbits; conditions: Oryctolagus cuniculus, po, read-out: TBARS, percent of control; for response vs control in vivo at 0.4 %: 168 h
In short: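 Female NZW rabbits ate 0.2% cholesterol chow with 0.4% dietary compound (some 0.26% or 0.6%) for 7 days (14 days at 0.6%); fasted serum was collected. Serum was oxidised with 5 mM CuSO4 solution, 37 °C 5 h, then reacted with thiobarbituric acid at 90 °C for 30 min. MDA nmol came from an A540 standard curve, versus untreated-rabbit serum.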

[4] = Food consumption, body and liver weight in cholesterol-fed rabbits; type: in vivo, female New Zealand White rabbits; conditions: for body wt., percent of control / lw/bw (liver weight/body weight), percent of control: rabbit
In short: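 Female New Zealand White rabbits fed 100 g/day of 0.2% cholesterol chow sprayed with compound (mostly 0.4%; some at 0.26% or 0.6%) from ethanol or diethyl ether:ethanol 3:2, for 7 days (14 days at 0.6%). Daily food intake, terminal body and liver weights recorded in grams.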

[5] = rat liver, diet 0.3%, read-out: Liver Parent = parent compound concentration
[6] = rat serum, diet 0.3%, read-out: Serum Parent = parent compound concentration
[7] = rabbit serum, diet 0.4%, 7 days
[8] = rat liver, diet 0.1%, read-out: Liver Parent = parent compound concentration
[9] = rat serum, diet 0.1%, read-out: Serum Parent = parent compound concentration

Row | Structure (SMILES) | response vs control in vivo at 0.3 % ([1]; Rattus norvegicus) [%] | Liver Parent = parent compound concentration ([2]; rat liver, diet 0.3%) [µg/g] | Serum Parent = parent compound concentration ([2]; rat serum, diet 0.3%) [µg/mL] | response vs control in vivo at 0.3 % ([1]; rat serum, diet 0.3%, 4 days) [%] | concentration at 96 h [2, 5] [ng/g] | concentration at 96 h [2, 6] [ng/mL] | response vs control in vivo at 0.4 % [3, 7] [%] | food (grams eaten per day per rabbit), percent of control ([4]; diet 0.4%, 7 days) [%] | body wt., percent of control ([4]; diet 0.4%, 7 days) [%] | lw/bw (liver weight/body weight), percent of control ([4]; diet 0.4%, 7 days) [%] | further results
1 | CC(C)(C)c1cc(OC[Si](C)(C)c2ccccc2)cc(C(C)(C)C)c1OC(=O)CCC(=O)O [MDL 103,076, 2,6-Di-t-butyl-4-[(dimethylphenylsilyl)methyloxy]phenol succinic acid ester] | 107 | 0 | 0 | – | – | – | – | – | – | – | –
2 | CC(C)(C)c1cc(SC[Si](C)(C)c2ccccc2)cc(C(C)(C)C)c1OC(=O)CCC(=O)O [MDL 103,141, 2,6-Di-t-butyl-4-[(dimethylphenylsilyl)methylthio]phenol sucinic acid ester] | 113 | 0 | 0 | – | – | – | – | – | – | – | –
3 | CC(=O)Oc1c(C(C)(C)C)cc(OC[Si](C)(C)c2ccccc2)cc1C(C)(C)C [MDL 103,377, 2,6-Di-t-butyl-4-[(dimethylphenylsilyl)methyloxy]phenol acetic acid ester] | – | – | – | 71 | 22200 | 7720 | – | – | – | – | –
4 | CC(C)(C)c1cc(OC[Si](C)(C)c2ccccc2)ccc1O [MDL 103,491, 2-t-Butyl-4-[(dimethylphenylsilyl)methyloxy]phenol] | – | 0 | – | 34 | – | 3000 | 32 | 100 | 100 | 89 | response vs control in vivo at 0.6 % ([3]; 336 h, rabbit serum, diet 0.6%, 14 days): 18%; response vs control in vivo at 0.1 % ([1]; rat serum, diet 0.1%, 4 days): 70%; Liver Parent = parent compound concentration ([2]; rat liver, diet 0.1%): 0 µg/g; Serum Parent = parent compound concentration ([2]; rat serum, diet 0.1%): 0 µg/mL; food (grams eaten per day per rabbit), percent of control ([4]; diet 0.6%, 14 days): 80%; body wt., percent of control ([4]; diet 0.6%, 14 days): 95%; lw/bw (liver weight/body weight), percent of control ([4]; diet 0.6%, 14 days): 96%
5 | CN(C)c1ccc([Si](C)(C)COc2cc(C(C)(C)C)c(O)c(C(C)(C)C)c2)cc1 [MDL 104,556, 2,6-Di-t-butyl-4-[(4-N,N-dimethylaminophenyldimethylsilyl)methyloxy]phenol] | – | – | – | 34 | 60300 | 16300 | 70 | 100 | 97 | 96 | response vs control in vivo at 0.1 % ([1]; rat serum, diet 0.1%, 4 days): 61%; concentration at 96 h [2, 8]: 38700 ng/g; concentration at 96 h [2, 9]: 9200 ng/mL
6 | CC(C)(C)c1cc(OC[Si](C)(c2ccccc2)c2ccccc2)cc(C(C)(C)C)c1O [MDL 104,599, 2,6-Di-t-butyl-4-[(diphenylmethylsilyl)methloxy]phenol] | – | – | – | 34 | 44900 | 28300 | 79 | 98 | 99 | 86 | –
7 | CC(C)(C)c1cc(OC[Si](C)(C)c2ccccc2)c(C(C)(C)C)cc1O [MDL 104,962, 2,5-Di-t-butyl-4-[(dimethylphenylsilyl)methyloxy]phenol] | – | – | – | 25 | 43500 | 16400 | 19 | 69 | 97 | 71 | –
8 | Cc1cc(OC[Si](C)(C)c2ccccc2)c(C)c(C)c1O [MDL 105,314, 2,3,6-Trimethyl-4-[(dimethylphenylsdilyl)methloxy]phenol] | 85 | 0.0 | 0.0 | – | – | – | – | – | – | – | –
9 | CC(=O)Oc1ccc(OC[Si](C)(C)c2ccccc2)cc1C(C)(C)C [MDL 105,443, 2-t-Butyl-4-[(dimethylphenylsilyl)methyloxy]phenol acetic acid ester] | – | 0 | 0.0 | 14 | – | – | 42 | 100 | 101 | 90 | response vs control in vivo at 0.1 % ([1]; rat serum, diet 0.1%, 4 days): 78%; Liver Parent = parent compound concentration ([2]; rat liver, diet 0.1%): 0 µg/g; Serum Parent = parent compound concentration ([2]; rat serum, diet 0.1%): 0 µg/mL
10 | CC(C)(C)c1cc(OC[Si](C)(C)c2ccc(C(F)(F)F)cc2)cc(C(C)(C)C)c1O [MDL 105,975, 2,6-Di-t-butyl-4-[(dimethyl-4-trifluoromethylphenylsilyl)methyloxy]phenol] | 24 | – | – | – | 186000 | 35800 | – | 100 | 101 | 108 | response vs control in vivo at 0.4 % [3]: 68%; response vs control in vivo at 0.1 % ([1]; Rattus norvegicus): 67%; concentration at 96 h [2, 8]: 94500 ng/g; concentration at 96 h [2, 9]: 23800 ng/mL
11 | COc1ccc([Si](C)(C)COc2ccc(O)c(C(C)(C)C)c2)cc1 [MDL 106,834, 2-t-Butyl-4-[(dimethyl-p-methoxylphenylsilyl)methyloxy]phenol] | – | – | – | 31 | 2700 | 1800 | 70 | 99 | 99 | 94 | –
